Assay results from patent US8637252B2, “Methods and compositions for determining altered susceptibility of HIV-1 to anti-HIV drugs” (Monogram Biosciences, Inc., priority 2011, dated 2014).
Several values for one entry are separate records, joined by “and”; a condition that tells them apart may be missing. Equal entries are not always repeated.

Key:
[1] = system: HIV-1 (patient-derived POL segment); assay: phenotypic drug resistance test, resistance test vectors with patient-derived POL segment (entire pol gene), luciferase, 293 cells; format: cell-based
Source text: Patient-derived segment(s) corresponding to the entire pol gene, encoding HIV protease, reverse transcriptase (including RNAse H), and integrase (hereinafter “POL”), the portion of pol encoding amino acids 1-305 of reverse transcriptase (hereinafter “PR-RT”), the portion of pol encoding amino acids 319-440 of reverse transcriptase (including RNAse H), and integrase (hereinafter “RHIN”), were amplified by the reverse transcription-polymerase chain reaction method (RT-PCR) using viral RNA isolated from viral particles present in the plasma or serum of HIV-infected individuals as described below. The portion of pol encoding protease, amino acids 1-531 of reverse transcriptase (including RNase H) (hereinafter “PRRT-RH”), or the portion of pol encoding protease, reverse transcriptase (including RNAse H) and integrase (hereinafter “PRRT-RHIN”), were assembled from amplicons described above by standard recombinant DNA techniques involving a KpnI restriction site at amino acid 400 or a Pin A1 site at amino acid 315.
Virus was pelleted by centrifugation at 20,400×g for 60 min from plasma (typically, 1 ml) prepared from blood samples collected in evacuated tubes containing either EDTA, acid-citrate dextrose, or heparin as an anticoagulant. Virus particles were disrupted by resuspending the pellets in 200 [1.1 of lysis buffer (4 M guanidine thiocyanate, 0.1 M Tris HCl (pH 8.0), 0.5% sodium lauryl sarcosine, 1% dithiothreitol). RNA was extracted from viral lysates by using oligo(dT) linked to magnetic beads (Dynal, Oslo, Norway). Reverse transcription was performed with Superscript III (Invitrogen) at 50 degrees for 1 hour using primer 1.
From the resultant cDNA either POL or RHIN sequences were amplified using the Advantage High Fidelity PCR kit (BD Biosciences; Clontech). POL amplification products are made using forward Primer 3 containing an Apal site and reverse Primer 4 containing a Xho 1 site. RHIN amplification products are made using forward Primer 2 containing a P1NA1 site and reverse Primer 4 containing a Xho 1 site.
A retroviral vector designed to measure antiretroviral drug susceptibility was constructed by using an infectious molecular clone of HIV-1. The vector, referred to herein as an indicator gene viral vector (IGVV), is replication defective and contains a luciferase expression cassette inserted within a deleted region of the envelope (env) gene. The IGVV is described in U.S. Pat. No. 5,837,464 (International Publication Number WO 97/27319) which is hereby incorporated by reference in its entirety. This retroviral vector was further modified to allow insertion of either the entire pol gene (POL) or the portion of poi encoding amino acids 319-440 of reverse transcriptase, the RNase H portion of reverse transcriptase, and integrase (REIN) by engineering an Xho l restriction enzyme recognition site into vif. Prior to doing this, an Xho 1 site in nef was deleted. Resistance Test vectors (RTVs) were constructed by incorporating amplified POL or RHIN into the IGVV by using Apal and Xhol or PinAI and Xho 1 restriction sites respectively. RTVs were prepared as libraries (pools) in order to capture and preserve the pol or RHIN sequence heterogeneity of the virus in the patient. POL amplification products were digested with Apal and Xhol, purified by agarose gel electrophoresis, and ligated to ApaI- and Xhol-digested IGVV DNA. RHIN amplification products were digested with PinAI and Xho/, purified by agarose gel electrophoresis, and ligated to PinAI and Xhol-digested IGVV DNA. Ligation reactions were used to transform competent Escherichia coli (Invitrogen, Carlsbad, Calif.). An aliquot of each transformation was plated onto agar, and colony counts were used to estimate the number of patient-derived segments represented in each RTV library. RTV libraries that comprised less than 50 members are not considered representative of the patient virus. […]

[2] = system: HIV-1 patient-derived test vectors with site-directed reverse transcriptase mutations; assay: phenotypic drug resistance test, site-directed reverse transcriptase mutants in patient backgrounds; format: cell-based
Experimental: In addition, using conventional technique, the T369I mutation was introduced into a resistance test vector comprising PR-RT segment derived from patient sample 62, which comprises mutations A62V, Q102K, K103N, K122E, D123N, C162S, D177E, 1178L, M184V, T200A, Q207E, T215Y, P243S, V245Q, A272P and R277K in reverse transcriptase. Among these mutations, K103N correlates with resistance to a number of NNRTIs, including NVP. This patient sample was tested for resistance to an NNRTI using the methods described above.
To further analyze the effects of N348I, T369I, and E399D on NNRTI resistance, an additional series of site directed mutants was constructed in non-wild-type backgrounds. In particular, site-directed mutants comprising the N348I, T369I, or E399D mutation were constructed in POL-containing test vectors obtained from three different patient samples. Results from these experiments are presented as FIG. 11.
To further analyze the effects of N348I, T369I, and E399D on AZT resistance, an additional series of site directed mutants was constructed in non-wild-type backgrounds. In particular, site-directed mutants comprising the N3481, T369I, or E399D mutation were constructed in POL-containing test vectors obtained from two different patient samples.

[3] = Sample 47 (K103K/N, V106V/A, Y181Y/C, G190G/A)
[4] = Sample 58 (K103N, Y181Y/C, G190G/A)
[5] = Sample 62 (K103H, P225P/H, T369T/I)
[6] = Sample 90 (K103K/N, Y181C, G190A)
[7] = E399D mutation, patient 50 background
[8] = E399D mutation, patient 58 or patient 62 background
[9] = N348I and T369I mutations, POL test vectors of patients 50, 58, 62

## O=C1Nc2ccc(Cl)cc2[C@@](C#CC2CC2)(C(F)(F)F)O1 [EFV, efavirenz]
[1]; Sample 31 (K103N)
  fold change in IC50, pol: 56.0 fold
  pol/PR-RT ratio: 2.5
[1]; Sample 33 (K103S)
  fold change in IC50, pol: 5.9 fold
  pol/PR-RT ratio: 0.8
[1]; Sample 34
  fold change in IC50, pol: 0.6 fold
  pol/PR-RT ratio: 1.4
[1]; Sample 35 (K103H)
  fold change in IC50, pol: 9.5 fold
  pol/PR-RT ratio: 1.0
[1]; Sample 36 (K103K/W)
  fold change in IC50, pol: 2.2 fold
  pol/PR-RT ratio: 0.3
[1]; Sample 38 (K103N)
  fold change in IC50, pol: 27.0 fold
  pol/PR-RT ratio: 0.6
[1]; Sample 39 (T369A)
  fold change in IC50, pol: 1.0 fold
  pol/PR-RT ratio: 4.0
[1]; Sample 42 (G190G/A)
  fold change in IC50, pol: 1.1 fold
  pol/PR-RT ratio: 0.3
[1]; Sample 45
  fold change in IC50, pol: 0.2 fold
  pol/PR-RT ratio: 1.0
[1]; [3]
  fold change in IC50, pol: 30.2 fold
  pol/PR-RT ratio: 0.2
[1]; Sample 50 (K103N)
  fold change in IC50, pol: 24.1 fold
  pol/PR-RT ratio: 0.4
[1]; Sample 51
  fold change in IC50, pol: 0.5 fold
  pol/PR-RT ratio: 1.1
[1]; Sample 52
  fold change in IC50, pol: 1.1 fold
  pol/PR-RT ratio: 0.8
[1]; [4]
  fold change in IC50, pol: 153.9 fold
  pol/PR-RT ratio: 5.8
[1]; [5]
  fold change in IC50, pol: 202 fold and 202.0 fold and 202.00 fold
  pol/PR-RT ratio: 10.1
[1]; Sample 64 (T369T/A)
  fold change in IC50, pol: 0.3 fold
  pol/PR-RT ratio: 0.3
[1]; Sample 69
  fold change in IC50, pol: 1.2 fold
  pol/PR-RT ratio: 1.6
[1]; Sample 72
  fold change in IC50, pol: 0.8 fold
  pol/PR-RT ratio: 1.5
[1]; Sample 80 (K103K/N, Y181Y/C)
  fold change in IC50, pol: 6.3 fold
  pol/PR-RT ratio: 0.6
[1]; Sample 81 (K103N, P225H)
  fold change in IC50, pol: 136.0 fold
  pol/PR-RT ratio: 1.4
[1]; Sample 84
  fold change in IC50, pol: 0.7 fold
  pol/PR-RT ratio: 1.0
[1]; Sample 85
  fold change in IC50, pol: 77.0 fold
  pol/PR-RT ratio: 3.5
[1]; Sample 87
  fold change in IC50, pol: 1.0 fold
  pol/PR-RT ratio: 1.1
[1]; Sample 89 (L1001, K103N)
  fold change in IC50, pol: 700.0 fold
  pol/PR-RT ratio: 1.0
[1]; [6]
  fold change in IC50, pol: 66.0 fold
  pol/PR-RT ratio: 1.3
[1]; Sample 92
  fold change in IC50, pol: 0.8 fold
  pol/PR-RT ratio: 0.8
[1]; Sample 93
  fold change in IC50, pol: 0.7 fold
  pol/PR-RT ratio: 0.8
[2]; [7]
  change in resistance on addition of mutation: increased
[2]; [8]
  change in resistance on addition of mutation: not
[2]; [9]
  change in resistance on addition of mutation: increased resistance

## Cc1ccnc2c1NC(=O)c1cccnc1N2C1CC1 [NVP, nevirapine]
[1]; Sample 31 (K103N)
  fold change in IC50, pol: 400.0 fold
  pol/PR-RT ratio: 4.5
[1]; Sample 33 (K103S)
  fold change in IC50, pol: 25.1 fold
  pol/PR-RT ratio: 1.1
[1]; Sample 34
  fold change in IC50, pol: 0.3 fold
  pol/PR-RT ratio: 1.3
[1]; Sample 35 (K103H)
  fold change in IC50, pol: 28.3 fold
  pol/PR-RT ratio: 1.1
[1]; Sample 36 (K103K/W)
  fold change in IC50, pol: 2.4 fold
  pol/PR-RT ratio: 0.2
[1]; Sample 38 (K103N)
  fold change in IC50, pol: 81.0 fold
  pol/PR-RT ratio: 0.7
[1]; Sample 39 (T369A)
  fold change in IC50, pol: 2.8 fold
  pol/PR-RT ratio: 9.0
[1]; Sample 42 (G190G/A)
  fold change in IC50, pol: 7.1 fold
  pol/PR-RT ratio: 0.2
[1]; Sample 45
  fold change in IC50, pol: 0.3 fold
  pol/PR-RT ratio: 1.1
[1]; [3]
  fold change in IC50, pol: 400.0 fold
  pol/PR-RT ratio: 1.0
[1]; Sample 50 (K103N)
  fold change in IC50, pol: 72.7 fold
  pol/PR-RT ratio: 0.5
[1]; Sample 51
  fold change in IC50, pol: 0.7 fold
  pol/PR-RT ratio: 1.6
[1]; Sample 52
  fold change in IC50, pol: 1.8 fold
  pol/PR-RT ratio: 0.9
[1]; [4]
  fold change in IC50, pol: 400.0 fold
  pol/PR-RT ratio: 1.0
[1]; [5]
  fold change in IC50, pol: 400.0 fold and 400.00 fold
  pol/PR-RT ratio: 6.3
[1]; Sample 64 (T369T/A)
  fold change in IC50, pol: 0.3 fold
  pol/PR-RT ratio: 0.3
[1]; Sample 69
  fold change in IC50, pol: 1.6 fold
  pol/PR-RT ratio: 1.6
[1]; Sample 72
  fold change in IC50, pol: 1.1 fold
  pol/PR-RT ratio: 1.6
[1]; Sample 80 (K103K/N, Y181Y/C)
  fold change in IC50, pol: 17.0 fold
  pol/PR-RT ratio: 0.4
[1]; Sample 81 (K103N, P225H)
  fold change in IC50, pol: 114.0 fold
  pol/PR-RT ratio: 1.2
[1]; Sample 84
  fold change in IC50, pol: 0.9 fold
  pol/PR-RT ratio: 1.2
[1]; Sample 85
  fold change in IC50, pol: 400.0 fold
  pol/PR-RT ratio: 3.0
[1]; Sample 87
  fold change in IC50, pol: 1.4 fold
  pol/PR-RT ratio: 1.7
[1]; Sample 89 (L1001, K103N)
  fold change in IC50, pol: 400.0 fold
  pol/PR-RT ratio: 10.8
[1]; [6]
  fold change in IC50, pol: 400.0 fold
  pol/PR-RT ratio: 1.0
[1]; Sample 92
  fold change in IC50, pol: 1.1 fold
  pol/PR-RT ratio: 1.0
[1]; Sample 93
  fold change in IC50, pol: 1.4 fold
  pol/PR-RT ratio: 0.9
[2]; [7]
  change in resistance on addition of mutation: increased
[2]; [8]
  change in resistance on addition of mutation: not
[2]; [9]
  change in resistance on addition of mutation: increased resistance
[2]; T369I introduced into PR-RT segment of patient sample 62 (contains K103N)
  resistance of test vector: enhanced resistance
